A melting point compilation (Tetko et al.; mined from patent text by program, amines drawn as free bases though some values may be those of a salt)
Residues, ends and D or L forms follow the SMILES beside them. *: point of attachment. Cbz = O=C(OCc1ccccc1)*

First: c1cc(-c2n[nH]c3c2Cc2ccc(CN4CCCC4)cc2-3)cs1
Second: c1cn(CCc2ccc3c(c2)Cc2c(-c4ccsc4)n[nH]c2-3)cn1
The melting point of the first is lower: 133 to 134 °C for the first, 160 to 165 °C for the second.

Compared with CC(=O)Oc1ccc(Oc2cccc(C(=O)O)c2)cc1, CC(=O)Oc1ccc(C2COc3c(ccc(OC(C)=O)c3C)C2O)cc1 (centres undefined) is lower in melting point: 141 to 143 °C for the first, 135 to 137 °C for the second.

First: FC(F)(F)c1ccc(CN2CC3(COc4ccc(-c5cccnc5)cc43)c3ccccc32)o1 (centres undefined)
Second: COC(=O)c1ccc(-c2ccc(-c3ccccc3)c(-c3ccc4c(c3)C(C)(C)CCC4(C)C)c2)c(O)c1
The melting point of the first is lower: 98 to 100 °C for the first, 183 to 185 °C for the second.

First: O=c1cc2c(nn1-c1ccccc1)-c1ccccc1CC2
Second: O=c1c2cccnc2sc(=Nc2ccccc2)n1Cc1ccccc1
The melting point of the first is higher: 155 to 157 °C for the first, 105 to 106 °C for the second.

First: COC(=O)Cc1ccc(C(=O)c2ccc(C)cc2)[nH]1
Second: COC(=O)c1cc(C(=O)c2ccc(OC)c(C(=O)OC)c2)ccc1OC
The melting point of the first is lower: 118 to 120 °C for the first, 142 to 144 °C for the second.

First: O=C(NCc1csc(C(F)(F)F)n1)c1ccnc(N2CCN(Cc3ccc(F)cc3)C2=O)c1
Second: Fc1ccc(N2CCN(Cc3ccc(CCl)cc3)CC2)cc1
The melting point of the first is lower: 66 to 68 °C for the first, 81 to 83 °C for the second.

Compared with CCCCCCCCCCCCCCCCCCN1C(=O)C2(CCCCC2)NC2(CCCCC2)C1=O, CCCCCCCCCCCCCCOc1ccc(NC(=O)Nc2cccc(CO)c2)cc1 is higher in melting point: 39 to 40 °C for the first, 150 to 158 °C for the second.

Compared with N#Cc1cccc2c1ccn2-c1ncc(C(F)(F)F)cc1Cl, Cc1nn(-c2cc(C(F)(F)F)ccc2Cl)cc1C(=O)O is higher in melting point: 109 to 111 °C for the first, 206 to 208 °C for the second.

Compared with COc1ccc(C2=NN(C3CCOCC3)C(=O)[C@H]3CC=CC[C@@H]23)cc1OC (relative stereo), COC(OC)C(=O)NC1CCN(C[C@@]23C[C@@H](c4ccccc42)c2ccc(Cl)cc23)CC1 is higher in melting point: 175 to 177 °C for the first, 188 to 189 °C for the second.

First: CC(c1ccc(Cl)cc1)N1Cc2sc3ncn(CCN4CCN(c5cccc6ccccc56)CC4)c(=O)c3c2C1 (centres undefined)
Second: COC(=O)c1ccccc1OCCCn1c(C(=O)C2CCN(CCC3(c4ccccc4)CCN(C(=O)c4cc(OC)c(OC)c(OC)c4)C3)CC2)nc2ccccc21 (centres undefined)
The melting point of the first is higher: 149 °C for the first, 74 to 80 °C for the second.

First: Cn1c2ccccc2c2oc(C(N)=O)cc(=O)c21
Second: O=c1[nH]c(=O)c2ccccc2o1
The melting point of the first is higher: > 295 °C for the first, 132 to 133 °C for the second.

First: COC(=O)C(Cc1ccccc1)NC(=O)C(CC(N)=O)NC(=O)C(CO)NC(=O)OCc1ccccc1 (stereo not drawn) (Cbz-Ser-Asn-Phe-OMe; configuration not given here)
Second: Cc1ccc2c(c1)N(CC(=O)c1ccccc1C)C(=O)C(NC(=O)Nc1cccc(C(=O)O)c1)CN2C(=O)OCc1ccccc1 (centres undefined)
The melting point of the first is higher: 180 to 183 °C for the first, 144 to 147 °C for the second.

First: COc1nc(C)nc(NC(=O)NS(=O)(=O)c2ccccc2-c2cnn(C)c2)n1
Second: CC(=O)OC1=C(c2nnc(C)o2)N(C)S(=O)(=O)c2ccccc21
The melting point of the first is higher: 221 to 224 °C for the first, 188 to 190 °C for the second.

First: CO/C=C(/C(=O)OC)c1cccnc1Oc1cccc(C=O)c1
Second: COc1cccc(C2C(=O)c3ccccc3C2=O)c1
The melting point of the first is lower: 84 to 86 °C for the first, 142 to 144 °C for the second.

First: CCn1c(Oc2cccc(NC(=O)N(C)C)c2)nnc1[C@@H](C)NS(=O)(=O)c1ccc(Cl)c(Cl)c1
Second: CCC(CC)(CC(=O)Nc1cccc(OCc2ccc3ccc(Br)cc3n2)c1)C(=O)O
The melting point of the first is lower: 158 to 159 °C for the first, 175 °C for the second.

First: CN(C)c1ccc(C2(c3ccc(N(C)C)cc3N(C)C)OC(=O)c3ccc(N(C)C)cc32)cc1 (centres undefined)
Second: COc1ccc(N2CCN(c3c(C)c(C)c4c(c3C)OC(C)(C)C4(O)c3ccc(C)cc3)CC2)cc1 (centres undefined)
The melting point of the first is higher: 222 to 225 °C for the first, 162 to 164 °C for the second.

First: CN1C(O)=C(C(=O)Nc2ccccc2Cl)c2cscc2S1(=O)=O
Second: CNC(=O)c1cc2c(nc(C)n2C)c(O)c1CC[C@@H](O)c1ccccc1
The melting point of the first is lower: 152 to 155 °C for the first, 247 to 249 °C for the second.

First: CC(C)c1cc(Oc2c(Cl)cc(CP(=O)(O)O)cc2Cl)ccc1O
Second: Cc1cc([N+](=O)[O-])c(C)c(Cl)c1Oc1ccc(Cl)c2ccccc12
The melting point of the first is higher: 178 to 181 °C for the first, 135 to 137 °C for the second.

First: CN1C(=S)Cc2ccccc21
Second: O=C1c2c(Cl)cc(Cl)c(Cl)c2C(=O)N1c1ccccc1
The melting point of the first is lower: 108 to 109 °C for the first, 199 to 200 °C for the second.

First: O=C(C=Cc1ccc(OCc2ccccc2)c([N+](=O)[O-])c1)N1CCCCC1
Second: COc1ccc(/C=C(\C)[N+](=O)[O-])cc1OCc1ccccc1
The melting point of the first is higher: 155 to 156 °C for the first, 102 to 104 °C for the second.

First: O=C(CC(NC(=O)C(F)(F)F)C(=O)O)c1ccc2c(c1)CCO2 (centres undefined)
Second: S=C(Cc1ccc2c(c1)CCO2)N1CCOCC1
The melting point of the first is higher: 160 to 162 °C for the first, 141 to 143 °C for the second.

Compared with O=c1cc(-c2ccccc2)oc2cccc(OCCCCCCI)c12, CCCc1c(CCC(=O)O)cnn1Cc1ccc(OCc2nc(-c3ccccc3)oc2C)cc1 is lower in melting point: 166 to 168 °C for the first, 158 to 159 °C for the second.

First: O=C(O)C1CC(F)(F)CC1C(=O)O (centres undefined)
Second: CC(C)(C)OC(=O)C1(N)C=CC(C(=O)O)C1 (centres undefined)
The melting point of the first is higher: 128 °C for the first, 126 to 127 °C for the second.

First: N#CSCC(Cl)=C(Cl)CSC#N
Second: CCCCCC=C1SC(=S)N(CC(=O)O)C1=O
The melting point of the first is higher: 166 to 169 °C for the first, 136 to 140 °C for the second.

First: Cc1ccc(C2COc3c(ccc(O)c3C)C2)cc1 (centres undefined)
Second: Cc1ccc2c(c1)nc(C)c(=O)n2-c1ccc(Cl)cc1
The melting point of the first is lower: 136 to 137 °C for the first, 223 to 225 °C for the second.

First: OCCOCC(O)c1ccc(OCc2ccccc2)cc1 (centres undefined)
Second: CCCCCCOc1ccc(CC(C)C(=O)Oc2ccc(-c3ccc(F)cc3)cc2)cc1 (centres undefined)
The melting point of the first is higher: 116 to 117 °C for the first, 78.4 to 79.5 °C for the second.

Compared with CCOC(=O)C(Oc1ccc(Cl)cc1)C(=O)OCC, CCOC(=O)Cn1c(=O)c2cc(Cl)ccc2n(Cc2ccc(Cl)cc2)c1=O is higher in melting point: 43.5 to 45 °C for the first, 137 to 138 °C for the second.

First: COc1cc(C)c(C(=O)c2c(Cl)cnc(Cl)c2Cl)c(OC)c1OC
Second: COc1cc(Nc2c(C#N)cnc3cc(/C=C/CCN4CCCC4)c(OC)cc23)c(Cl)cc1Cl
The melting point of the first is lower: 60 to 61 °C for the first, 158 to 159 °C for the second.

O=c1[nH]c(-c2ccc(CCCCCl)cc2)cs1 and N#Cc1ccc(F)cc1-c1ccc(F)cc1 cannot be ordered by melting point: 111 to 117 °C for the first, 111 to 113 °C for the second.

First: CC(NCC(O)CP(=O)(O)CC1CCCCC1)c1ccc(Cl)c(Cl)c1 (centres undefined)
Second: CS(=O)(=O)Nc1cc(C(O)CNC2CCN(c3ccc(CC4SC(=O)N(CC(=O)O)C4=O)cc3)CC2)ccc1O (centres undefined)
The melting point of the first is higher: 173 to 178 °C for the first, 158 to 160 °C for the second.

First: C[C@@H](N[C@@H](CC(=O)N1CCn2c(nnc2C(F)(F)F)C1)Cc1cc(F)c(F)cc1F)c1ccccc1
Second: CNC(C(=O)NC(N)=O)C(=S)c1cccc2c(C(F)(F)F)c(OC)ccc12 (centres undefined)
The melting point of the first is lower: 128 °C for the first, 203 to 204 °C for the second.

First: CC(=O)C(=NNc1ccc(OC(C)(C)C)cc1)Sc1ccc(Cl)cc1
Second: O=C(NC(=O)c1ccc(C(F)(F)F)cc1)Nc1ccc(Cl)cc1
The melting point of the first is lower: 107 to 108 °C for the first, 260 °C for the second.

Compared with CCOC(=O)C1=Cc2c3c(c(C(=O)OCC)cc2=N1)=Nc1cnccc1-3, CCOC(=O)C1=C(C)NC(CN(C)C)=C(C(=O)OCC)C1c1ccccc1/C=C/C(=O)OC(C)(C)C (centres undefined) is lower in melting point: 198 to 201 °C for the first, 146 to 148 °C for the second.

First: CC(C)[C@H]1CC[C@H](C(=O)COS(=O)(=O)c2ccccc2)CC1
Second: O=C(Cn1ccnc1)CS(=O)(=O)c1ccccc1
The melting point of the first is lower: 48 to 49 °C for the first, 137 to 140 °C for the second.

Compared with C=CCOc1ccc(C(=O)CC(C#N)c2ccc(OC)cc2OC)cc1 (centres undefined), C=C(C)COc1cc(OC)cc(C(=O)OC)c1 is higher in melting point: 112 to 113 °C for the first, 159 to 161 °C for the second.

First: CCNC(=O)c1c([Si](C)(C)C)ccc(CF)c1Cl
Second: COC(=O)C(C)(C)c1cn2nc(Cl)ccc2n1
The melting point of the first is higher: 104 to 105 °C for the first, 92 to 93 °C for the second.

First: Cc1nc2c(N)cc(Br)cc2n1C
Second: Cc1noc(NS(=O)(=O)c2cc(F)ccc2F)c1Br
The melting point of the first is higher: 206 to 209 °C for the first, 123 to 125 °C for the second.

First: CCNc1nc2ccc(CCc3ncc[nH]3)cc2o1
Second: CN1CCN(c2cnc3cc(Cl)ccc3n2)CC1
The melting point of the first is higher: 204 to 206 °C for the first, 151 to 152 °C for the second.

Compared with COC(=O)Nc1nc2c(C(C)C)cc(SC3=C(O)C[C@@](CCc4ccc(O)cc4)(C(C)C)OC3=O)c(C)c2s1, CCOC(=O)/C(C)=C(/C)c1cccc(OCc2nc(-c3ccc(C(F)(F)F)cc3)oc2C)c1 is lower in melting point: 150 to 151 °C for the first, 115 to 116 °C for the second.

COC(=O)c1ccc(N2CCNC2=O)cc1 and CCCn1c(=O)c2c(nc(C=Cc3ccc(C(=O)O)cc3)n2C)n(CCC)c1=O cannot be ordered by melting point: > 200 °C for the first, 215 to 217 °C for the second.

First: CC(C)(C1OCCO1)C(O)(COc1ccc(F)cc1)Cn1cncn1 (centres undefined)
Second: CC(C)(C)c1ccc(S(=O)(=O)N2c3ccc(F)cc3CC2C(=O)NCCc2ccccc2)cc1 (centres undefined)
The melting point of the first is lower: 102 to 104 °C for the first, 168 to 172 °C for the second.

Compared with CNC(=S)N(C)c1cncc(C(F)(F)F)c1, COc1cc(Oc2cc(C(F)(F)F)nn2C)nc(Oc2cc(C(F)(F)F)nn2C)c1 is higher in melting point: 86 to 90 °C for the first, 107 °C for the second.

First: CCCCCCC1=CC(O)(C(Br)Br)N(c2ccccc2)C1=O (centres undefined)
Second: C#CCc1cc(C(O)=S)cc(S(=O)(=O)Cl)c1Oc1ccccc1
The melting point of the first is lower: 43 to 45 °C for the first, 177 to 179 °C for the second.

Compared with CCCN(CCC)c1nccc2ccc(C(=O)N[C@@H](Cc3cc(F)cc(F)c3)[C@H](O)CNCc3cccc(CC)c3)cc12, Cc1ccc2c(c1)C=Cc1cc(C)ccc1C2c1cn(Cc2nc(C(=O)O)co2)c(=O)[nH]c1=S is higher in melting point: 142 to 151 °C for the first, 273 °C for the second.

Compared with C(=C1CCN(C(c2ccccc2)(c2ccccc2)c2ccccc2)CC1)c1ccc(C2=NCCO2)cc1, CC1OC(n2cc(F)c(NC(=O)c3ccccc3)nc2=O)C(OC(=O)c2ccccc2)C1OC(=O)c1ccccc1 (centres undefined) is higher in melting point: 74 °C for the first, 158 to 160 °C for the second.

Compared with CC(=O)NCc1nnc(S)s1, C#CCNC(=O)NC1CCC(=O)c2sccc21 (centres undefined) is lower in melting point: 200 to 203 °C for the first, 170 to 183 °C for the second.

First: CC(=O)NC(=O)C(C)SC(C)=O (centres undefined)
Second: CC(C)(C)NS(=O)(=O)c1c(C(Br)Br)nsc1OCC(F)(F)F
The melting point of the first is lower: 91 to 93 °C for the first, 135 to 138 °C for the second.

Compared with CCCCCCCCCCCC1OC1C(=O)O (centres undefined), C=CCNC(=O)C(O)C1OC(n2cnc3c(N)ncnc32)C(O)C1O (centres undefined) is higher in melting point: 76 to 77 °C for the first, 136 to 138 °C for the second.

First: CN1CCN(C(=O)OC2C3=C(SCCS3)C(=O)N2c2ccccn2)CC1 (centres undefined)
Second: O=Cc1c[nH]cc1-c1cccc(Cl)c1Cl
The melting point of the first is lower: 145 °C for the first, 152 to 154 °C for the second.

For COc1c(CN2CCNC2=C[N+](=O)[O-])cc(C)nc1[N+](=O)[O-], the melting point was 177 to 181 °C.
